The values that follow are results of earlier work, collected in US11826376B2, “Methods of treating heart failure with preserved ejection fraction employing dapagliflozin and compositions comprising the same” (AstraZeneca AB, priority 2018, dated 2023).

The target in data set [1] is human renal SGLT2 (Homo sapiens, UniProt P31639). The following applies: background statement, no data.
Chain of human renal SGLT2 (P31639 whole entry): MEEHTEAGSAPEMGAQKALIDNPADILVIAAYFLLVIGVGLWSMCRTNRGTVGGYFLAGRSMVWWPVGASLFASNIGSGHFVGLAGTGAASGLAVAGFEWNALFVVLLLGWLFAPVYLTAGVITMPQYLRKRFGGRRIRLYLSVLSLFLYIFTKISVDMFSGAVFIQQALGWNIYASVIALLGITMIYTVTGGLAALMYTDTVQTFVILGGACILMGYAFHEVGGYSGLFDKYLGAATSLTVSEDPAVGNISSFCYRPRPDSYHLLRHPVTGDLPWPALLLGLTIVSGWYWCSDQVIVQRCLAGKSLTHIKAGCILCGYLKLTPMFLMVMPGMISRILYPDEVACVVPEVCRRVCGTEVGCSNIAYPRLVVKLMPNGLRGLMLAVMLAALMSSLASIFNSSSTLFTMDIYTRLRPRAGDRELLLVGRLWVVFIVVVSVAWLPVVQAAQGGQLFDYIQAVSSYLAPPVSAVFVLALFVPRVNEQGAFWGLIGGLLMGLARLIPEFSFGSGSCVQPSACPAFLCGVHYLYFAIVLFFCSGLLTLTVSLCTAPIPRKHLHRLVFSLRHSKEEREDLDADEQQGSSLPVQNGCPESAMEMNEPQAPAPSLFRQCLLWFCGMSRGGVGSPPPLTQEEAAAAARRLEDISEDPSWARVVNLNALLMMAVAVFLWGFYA

Turning to `CCOc1ccc(Cc2cc([C@@H]3O[C@H](CO)[C@@H](O)[C@H](O)[C@H]3O)ccc2Cl)cc1` [Dapagliflozin, dapagliflozin], where the note is “Shigiyama et al. 2017”, the albuminuria result is given as “reduce”, the arterial stiffness entry is “reduces”, the blood uric acid result is listed as “reduce” and the systolic blood pressure entry is “reduce”. Moreover, under “Shigiyama et al. 2017”, the weight entry was “reduce”. Moreover, for the setting “background statement”, the HbA1c entry is given as “effectively lowers” and the “risk of inducing hypoglycaemia” value was “low risk”. For the same compound, the “inhibitor of human renal SGLT2” value in data set [1] is given as “potent, highly selective”.
